≈ marks a conversion by molar mass, not a printed value.
System: Streptococcus pneumoniae
Experiment: Antibacterial activity against tetracycline-susceptible Streptococcus pneumoniae GMRS06 harboring one-nucleotide insertion stop codon in […] gene
Type: functional

CN(C)[C@@H]1C(O)=C(C(N)=O)C(=O)[C@@]2(O)C(O)=C3C(=O)c4c(O)cccc4[C@@](C)(O)[C@H]3C[C@@H]12 [TETRACYCLINE]
MIC: 0.25 µg/mL (≈ 0.563 µM)
